Data: patent publication US8993574B2, “Pyrrole antifungal agents” (F2G Ltd, priority 2008, dated 2015)
In brackets after ≈: the same amount, converted by molar mass.

Key:
Format in all cases: cell-based
Aspergillus flavus [1] = experiment: MIC, YAG medium; settings: 24 h at 35° C, MIC banded into grades; for MIC: Aspergillus flavus, 24 h, read-out: MIC grade, A. flavus
How it was run: (§1)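 Growth inhibition was measured by absorbance at 485 nm following 24 h at 35° C. Spores harvested after 5 days on Sabouraud agar served as inoculum (1−2×10^4 cfu/mL, YAG medium). The lowest drug level producing >70% inhibition was taken as MIC.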

[2] = system: Aspergillus fumigatus AF210; experiment: MIC, YAG medium; settings: 24 h at 35° C, MIC banded into grades; for MIC: Aspergillus fumigatus, read-out: MIC grade, A. fumigatus 210
How it was run: as §1

[3] = system: Aspergillus fumigatus AF293; experiment: MIC, YAG medium; settings: 24 h at 35° C, MIC banded into grades; for MIC: Aspergillus fumigatus, read-out: MIC grade, A. fumigatus
How it was run: as §1

Aspergillus niger [4] = experiment: MIC, YAG medium; settings: 24 h at 35° C, MIC banded into grades; for MIC: Aspergillus niger, read-out: MIC grade, A. niger
How it was run: as §1

Aspergillus terreus AT49 [5] = experiment: MIC, YAG medium; settings: 24 h at 35° C, MIC banded into grades; for MIC: Aspergillus terreus, read-out: MIC grade, A. terreus 49
How it was run: as §1

Aspergillus terreus AT4 [6] = experiment: MIC, YAG medium; settings: 24 h at 35° C, MIC banded into grades; for MIC: Aspergillus terreus, read-out: MIC grade, A. terreus
How it was run: as §1

Aspergillus flavus [7] = experiment: MIC, RPMI medium; settings: MIC banded into grades; for MIC: Aspergillus flavus, read-out: MIC grade, A. flavus
How it was run: (§2)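 MIC taken as lowest drug level inhibiting growth by >80% relative to drug-free wells, read as OD at 485 nm after 24-48 h at 35° C. Organisms at 1−2×10^4 cfu/mL in RPMI (2% glucose, 0.135 M MOPS, pH 7.0) exposed to doubling dilutions spanning 50-0.05 mg/L.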

[8] = system: Aspergillus fumigatus AF210; experiment: MIC, RPMI medium; settings: for MIC grade, A. fumigatus 210: MIC banded into grades; for MIC: Aspergillus fumigatus, AF210, MIC banded into grades, read-out: MIC grade, A. fumigatus 210
How it was run: as §2

[9] = system: Aspergillus fumigatus AF293; experiment: MIC, RPMI medium; settings: for MIC grade, A. fumigatus: MIC banded into grades; for MIC: Aspergillus fumigatus, AF293, MIC banded into grades, read-out: MIC grade, A. fumigatus
How it was run: as §2

Aspergillus niger [10] = experiment: MIC, RPMI medium; settings: MIC banded into grades; for MIC: Aspergillus niger, read-out: MIC grade, A. niger
How it was run: as §2

Aspergillus terreus AT49 [11] = experiment: MIC, RPMI medium; settings: for MIC grade, A. terreus 49: MIC banded into grades; for MIC: Aspergillus terreus, AT49, MIC banded into grades, read-out: MIC grade, A. terreus 49
How it was run: as §2

Aspergillus terreus AT4 [12] = experiment: MIC, RPMI medium; settings: for MIC grade, A. terreus: MIC banded into grades; for MIC: Aspergillus terreus, AT4, MIC banded into grades, read-out: MIC grade, A. terreus
How it was run: as §2

Candida albicans = experiment: MIC, RPMI medium; settings: 24-48 h at 35° C., >80% growth inhibition, banded into grades; for MIC: Candida albicans
How it was run: as §2

Candida glabrata = experiment: MIC, RPMI medium; settings: 24-48 h at 35° C., >80% growth inhibition, banded into grades; for MIC: Nakaseomyces glabratus
How it was run: as §2

Candida krusei = experiment: MIC, RPMI medium; settings: 24-48 h at 35° C., >80% growth inhibition, banded into grades; for MIC: Pichia kudriavzevii
How it was run: as §2

Candida parapsilosis = experiment: MIC, RPMI medium; settings: 24-48 h at 35° C., >80% growth inhibition, banded into grades; for MIC: Lodderomyces parapsilosis
How it was run: as §2

Candida tropicalis = experiment: MIC, RPMI medium; settings: 24-48 h at 35° C., >80% growth inhibition, banded into grades; for MIC: Candida tropicalis
How it was run: as §2

Compound | MIC grade, A. flavus (Aspergillus flavus [1]) | MIC grade, A. fumigatus 210 [2] | MIC grade, A. fumigatus [3] | MIC grade, A. niger (Aspergillus niger [4]) | MIC grade, A. terreus 49 (Aspergillus terreus AT49 [5]) | MIC grade, A. terreus (Aspergillus terreus AT4 [6]) | MIC grade, A. flavus (Aspergillus flavus [7]) | MIC grade, A. fumigatus 210 [8] | MIC grade, A. fumigatus [9] | MIC grade, A. niger (Aspergillus niger [10]) | MIC grade, A. terreus 49 (Aspergillus terreus AT49 [11]) | MIC grade, A. terreus (Aspergillus terreus AT4 [12]) | Candida MIC, C. albicans (Candida albicans) | Candida MIC, C. glabrata (Candida glabrata) | Candida MIC, C. krusei (Candida krusei) | Candida MIC, C. parapsilosis (Candida parapsilosis) | Candida MIC, C. tropicalis (Candida tropicalis) | MIC (Aspergillus flavus [1]) [µg/mL] | MIC [2] [µg/mL] | MIC [3] [µg/mL] | also measured
COC(=O)Cn1ccc(CC(C)C)c1C(=O)C(=O)Nc1ccc(N2CCN(c3cc(C)cc(C)n3)CC2)cc1 [Example 89, (2-{4-[4-(4,6-Dimethyl-pyridin-2-yl)-piperazin-1-yl]-phenylaminooxalyl}-3-isobutyl-pyrrol-1-yl)-acetic acid methyl ester] | 1 (a grade of 1 represents an MIC of greater than 10 mg/L) | 3 (A grade of 3 represents an MIC of less than 1 mg/L) | 3 (A grade of 3 represents an MIC of less than 1 mg/L) | 2 (A grade of 2 represents an MIC of from 1 to 10 mg/L) | 2 (A grade of 2 represents an MIC of from 1 to 10 mg/L) | 2 (A grade of 2 represents an MIC of from 1 to 10 mg/L) | 1 (a grade of 1 represents an MIC of greater than 10 mg/L) | 2 (A grade of 2 represents an MIC of from 1 to 10 mg/L) | 2 (A grade of 2 represents an MIC of from 1 to 10 mg/L) | 2 (A grade of 2 represents an MIC of from 1 to 10 mg/L) | 1 (a grade of 1 represents an MIC of greater than 10 mg/L) | 1 (a grade of 1 represents an MIC of greater than 10 mg/L) | 2 (A grade of 2 represents an MIC of from 1 to 10 mg/L) | 3 (A grade of 3 represents an MIC of less than 1 mg/L) | 3 (A grade of 3 represents an MIC of less than 1 mg/L) | 3 (A grade of 3 represents an MIC of less than 1 mg/L) | 3 (A grade of 3 represents an MIC of less than 1 mg/L) |  |  |  | 
COCCn1c(C)cc(-c2ccccc2)c1C(=O)C(=O)Nc1ccccc1 [Example 60, 2-[1-(2-Methoxy-ethyl)-5-methyl-3-phenyl-1H-pyrrol-2-yl]-2-oxo-N-phenyl-1-acetamide] | 1 (a grade of 1 represents an MIC of greater than 10 mg/L) | 2 (A grade of 2 represents an MIC of from 1 to 10 mg/L) | 2 (A grade of 2 represents an MIC of from 1 to 10 mg/L) | 2 (A grade of 2 represents an MIC of from 1 to 10 mg/L) | 2 (A grade of 2 represents an MIC of from 1 to 10 mg/L) | 2 (A grade of 2 represents an MIC of from 1 to 10 mg/L) | 1 (a grade of 1 represents an MIC of greater than 10 mg/L) | 2 (A grade of 2 represents an MIC of from 1 to 10 mg/L) | 2 (A grade of 2 represents an MIC of from 1 to 10 mg/L) | 2 (A grade of 2 represents an MIC of from 1 to 10 mg/L) | 1 (a grade of 1 represents an MIC of greater than 10 mg/L) | 1 (a grade of 1 represents an MIC of greater than 10 mg/L) | 3 (A grade of 3 represents an MIC of less than 1 mg/L) | 3 (A grade of 3 represents an MIC of less than 1 mg/L) | 3 (A grade of 3 represents an MIC of less than 1 mg/L) | 3 (A grade of 3 represents an MIC of less than 1 mg/L) | 2 (A grade of 2 represents an MIC of from 1 to 10 mg/L) |  |  |  | 
COCCn1c(C)cc(-c2ccccc2)c1C(=O)C(=O)Nc1ccc(N2CCCCC2)cc1F [Example 114, N-(2-Fluoro-4-piperidin-1-yl-phenyl)-2-[1-(2-methoxy-ethyl)-5-methyl-3-phenyl-1H-pyrrol-2-yl]-2-oxo-acetamide] |  |  |  |  |  |  |  |  |  |  |  |  |  |  |  |  |  | < 1 | < 1 | < 1 | MIC (Aspergillus niger [4]): < 1 µg/mL; MIC (Aspergillus terreus AT49 [5]): < 1 µg/mL; MIC (Aspergillus terreus AT4 [6]): < 1 µg/mL; MIC (Aspergillus flavus [7]): 1 to 10 µg/mL (≈ 2.16 to 21.6 µM); MIC [8]: 1 to 10 µg/mL (≈ 2.16 to 21.6 µM); MIC [9]: 1 to 10 µg/mL (≈ 2.16 to 21.6 µM); MIC (Aspergillus niger [10]): < 1 µg/mL; MIC (Aspergillus terreus AT49 [11]): 1 to 10 µg/mL (≈ 2.16 to 21.6 µM); MIC (Aspergillus terreus AT4 [12]): 1 to 10 µg/mL (≈ 2.16 to 21.6 µM); MIC (Candida albicans): < 1 µg/mL; MIC (Candida glabrata): < 1 µg/mL; MIC (Candida krusei): < 1 µg/mL; MIC (Candida parapsilosis): < 1 µg/mL; MIC (Candida tropicalis): < 1 µg/mL
COC(=O)Cn1ccc(-c2ccccc2)c1C(=O)C(=O)Nc1ccc(N2CCN(c3cc(C)cc(C)n3)CC2)cc1 [Example 74, (2-{4-[4-(4,6-Dimethyl-pyridin-2-yl)-piperazin-1-yl]-phenylaminooxalyl}-3-phenylpyrrol-1-yl)-acetic acid methyl ester] | 1 (a grade of 1 represents an MIC of greater than 10 mg/L) | 3 (A grade of 3 represents an MIC of less than 1 mg/L) | 3 (A grade of 3 represents an MIC of less than 1 mg/L) | 3 (A grade of 3 represents an MIC of less than 1 mg/L) | 2 (A grade of 2 represents an MIC of from 1 to 10 mg/L) | 2 (A grade of 2 represents an MIC of from 1 to 10 mg/L) | 1 (a grade of 1 represents an MIC of greater than 10 mg/L) | 3 (A grade of 3 represents an MIC of less than 1 mg/L) | 3 (A grade of 3 represents an MIC of less than 1 mg/L) | 3 (A grade of 3 represents an MIC of less than 1 mg/L) | 2 (A grade of 2 represents an MIC of from 1 to 10 mg/L) | 2 (A grade of 2 represents an MIC of from 1 to 10 mg/L) | 2 (A grade of 2 represents an MIC of from 1 to 10 mg/L) | 3 (A grade of 3 represents an MIC of less than 1 mg/L) | 2 (A grade of 2 represents an MIC of from 1 to 10 mg/L) | 3 (A grade of 3 represents an MIC of less than 1 mg/L) | 3 (A grade of 3 represents an MIC of less than 1 mg/L) |  |  |  | 
COCCn1ccc(-c2ccsc2)c1C(=O)C(=O)Nc1ccc(N2CCN(c3cc(C)cc(C)n3)CC2)cc1 [Example 72, N-{4-[4-(4,6-Dimethyl-pyridin-2-yl)-piperazin-1-yl]-phenyl}-2-[1-(2-methoxy-ethyl)-3-thiophen-3-yl-1H-pyrrol-2-yl]-2-oxo-acetamide] |  |  |  |  |  |  |  |  |  |  |  |  |  |  |  |  |  | 1 to 10 (≈ 1.84 to 18.4 µM) | < 1 | < 1 | MIC (Aspergillus niger [4]): < 1 µg/mL; MIC (Aspergillus terreus AT49 [5]): < 1 µg/mL; MIC (Aspergillus terreus AT4 [6]): < 1 µg/mL; MIC (Aspergillus flavus [7]): 1 to 10 µg/mL (≈ 1.84 to 18.4 µM); MIC [8]: 1 to 10 µg/mL (≈ 1.84 to 18.4 µM); MIC [9]: 1 to 10 µg/mL (≈ 1.84 to 18.4 µM); MIC (Aspergillus niger [10]): 1 to 10 µg/mL (≈ 1.84 to 18.4 µM); MIC (Aspergillus terreus AT49 [11]): 1 to 10 µg/mL (≈ 1.84 to 18.4 µM); MIC (Aspergillus terreus AT4 [12]): 1 to 10 µg/mL (≈ 1.84 to 18.4 µM); MIC (Candida albicans): < 1 µg/mL; MIC (Candida glabrata): < 1 µg/mL; MIC (Candida krusei): 1 to 10 µg/mL (≈ 1.84 to 18.4 µM); MIC (Candida parapsilosis): < 1 µg/mL; MIC (Candida tropicalis): < 1 µg/mL
